# Experiments:
# [1] = set-up: method as in Coleman et al., 2014; settings: ref Coleman et al., 2014, cited from earlier work; for KCa2 channel mediated side effects on CNS and heart rate: mice; for Blood pressure lowering: normotensive and hypertensive mice
# [2] = tested on: KCa3.1 over KCa2 channels; settings: second generation activators; ref Coleman et al., 2014; cited from earlier work
# KCa3.1 = target: T1, KCa3.1 (Homo sapiens, UniProt O15554+P0DP23); experiment: QPatch automated whole-cell patch-clamp screen, 10 µM activator normalized to 10 µM SKA-31; type: cell-based; settings: for Whole-cell KCa3.1 response elicited by 10 µM of activator normalized to 10 µM SKA-31 (described in words): 250 nM free internal Ca2+, HEK cells stably expressing channel
# T1 construct: expressed in transfected cells
# Experimental: (§1) All experiments were performed in either the inside-out or the whole-cell configuration of the patch-clamp technique on either transiently transfected CHO cells or Human Embryonic Kidney (HEK) cell lines stably expressing hKCa3.1 or hKCa2.2 ([Sankaranarayanan et al., 2009]). All cells were cultured in Dulbecco’s modified Eagle’s medium supplemented with 10% fetal calf serum. Wild-type (WT) and mutant hKCa3.1 channel constructs were transfected using FuGENE 6 transfection reagent (Promega, Madison, WI) in OptiMEM reduced-serum medium (Life Technologies, Benicia, CA) for manual patch-clamp experiments or via electroporation (Nucleofector 2b and Lonza Amaxa Cell Line Nucleofector Kit T) according to the manufacturer’s instructions for automated electrophysiology.
# (§2) The procedure for performing automated whole-cell KCa channel recordings on a QPatch-16 automated electrophysiology platform (Sophion Biosciences) was previously described in detail by our laboratory ([Jenkins et al., 2013]). For the current study we used the solutions described above with disposable 16-channel planar patch chip plates (QPlates; patch hole diameter […], resistance 2.00–0.02MΩ, Sophion Biosciences, Woburn, MA). Cell positioning and sealing parameters were set as follows: positioning pressure -70 mbar, resistance increase for success 750%, minimum seal resistance 0.1 GΩ, holding potential -0 mV, holding pressure -20 mbar. To avoid rejection of cells with large KCa3.1 currents, the minimum seal resistance for whole-cell requirement was lowered to 0.001 GΩ. Access was obtained with the following sequence: 1) suction pulses in 29 mbar increments from -250 mbar to -453 mbar; 2) a suction ramp of an amplitude of -450 mbar; 3) -400 mV voltage zaps of 1 ms duration. Following establishment of the whole-cell configuration, cells were held at -80 mV and KCa currents elicited by a voltage protocol that held at -80 mV for 20 ms, stepped to -120 mV for 20 ms, ramped from -120 to + 40 mV in 200 ms, and then stepped back to -120 mV for 20 ms. This pulse protocol was applied every 10 s. KCa activator dilutions were prepared freshly (within 5 min of the initiation of the QPatch) with Ringer’s solution from 10 mM stock solutions in dry DMSO. Final DMSO concentrations never exceeded 1%. Glass vial inserts (to avoid adsorption) were filled with 400 µL of compound solution and placed into the insert base plate for use in the QPatch assay. Exemplary QPatch raw current traces and plots of slope conductance versus time are shown in Supplementary Figure 3 . For each compound we typically used 12 consecutive liquid periods Break-in, 3 saline additions to stabilize the current, 2 additions of test compound at 10 µM, 2 saline washes, 2 additions of SKA-31 at 10 µM, followed by 2 more saline washes. In each liquid period 10 pulse protocols were run.
# (§3) The newly synthesized compounds were tested by automated whole-cell patch-clamp for their ability to activate KCa2.2 and KCa3.1 channels stably expressed in HEK cells. […] A promising compound would ideally do both. […] We started by comparing the effect of the SKA-74 derivatives to SKA-31 ( Figure 4A ).
# (§4) Figure 4 Whole-cell KCa3.1 and KCa2.2 responses elicited by 10 µM of activator and normalized to 10 µM of the mixed activator SKA-31. Experiments were performed by automated electrophysiology with 250 nM of free internal Ca^2+. In each experiment the new activator was tested first, washed out with 2 saline additions, and then SKA-31 was applied as positive control for normalization of the response. (A) Screening of SKA-74 derivatives. (B) Screening of SKA-75 and SKA-76 derivatives. The bar graphs show means ± SD of the slope conductance measured between −85 and −65 mV (n = 2–7 cells). Chemical structures are shown below the bar graphs.
# (§5) Figure 5 Whole-cell KCa3.1 and KCa2.2 responses elicited by 10 µM of activator and normalized to 10 µM of the mixed activator SKA-31. […]
# KCa2.2 = target: T2, KCa2.2 (Homo sapiens, UniProt P0DP23+Q9H2S1); experiment: as above; type: cell-based; settings: 250 nM free internal Ca2+, HEK cells stably expressing channel
# T2 construct: expressed in transfected cells
# Experimental: as §1, §2, §3, §4, §5
melting point [°C],"Selectivity between KCa3.1 and KCa2.2 in the 10 µM screen (KCa3.1; KCa3.1 versus KCa2.2, 250 nM free Ca2+)",Whole-cell KCa2.2 response elicited by 10 µM of activator normalized to 10 µM SKA-31 (described in words) (KCa2.2),Whole-cell KCa3.1 response elicited by 10 µM of activator normalized to 10 µM SKA-31 (described in words) (KCa3.1),Compound,KCa2 channel mediated side effects on CNS and heart rate [1],Blood pressure lowering [1],Selectivity for KCa3.1 [2]
145 to 146,–,inactive,inactive,"Cc1nc2c(cc(C#N)c3ccccc32)o1 [SKA-135, 2-Methylnaphtho[1,2-d]oxazole-5-carbonitrile]",–,–,–
187 to 188,–,abolished activity on KCa2.2,preserved it again on KCa3.1,"CNc1nc2c(ccc3ccccc32)s1 [SKA-158, N-Methylnaphtho[1,2-d]thiazol-2-amine]",–,–,–
178 to 179,–,inactive,inactive,"Cc1nc2c(ccc3c([N+](=O)[O-])cccc32)s1 [SKA-215, 2-Methyl-6-nitronaphtho[1,2-d]thiazole]",–,–,–
350,–,completely devoid of activity,completely devoid of activity,"Nc1nc(-c2ccc(-c3csc(N)n3)cc2)cs1 [SKA-230, 4,4'-(1,4-Phenylene)bis(thiazol-2-amine)]",–,–,–
135,–,completely abolished activity,completely abolished activity,"FC(F)(F)c1cccc(Nc2nc(-c3cccc4ccccc34)cs2)c1 [SKA-251, 4-(Naphthalen-1-yl)-N-(3-(trifluoromethyl)phenyl)thiazol-2-amine]",–,–,–
153,–,completely devoid of activity,completely devoid of activity,"FC(F)(F)c1ccc(Nc2nc(-c3ccccc3)cs2)cc1 [SKA-268, 4-Phenyl-N-(4-(trifluoromethyl)phenyl)thiazol-2-amine]",–,–,–
119 to 121,–,somewhat reduced potency,somewhat reduced potency,"CCN(CC)c1cc2sc(N)nc2c2ccccc12 [SKA-330, N^5,N^5-Diethylnaphtho[1,2-d]thiazole-2,5-diamine]",–,–,–

# The next lines start with the compound.
Compound,melting point [°C],"Selectivity between KCa3.1 and KCa2.2 in the 10 µM screen (KCa3.1; KCa3.1 versus KCa2.2, 250 nM free Ca2+)",Whole-cell KCa2.2 response elicited by 10 µM of activator normalized to 10 µM SKA-31 (described in words) (KCa2.2),Whole-cell KCa3.1 response elicited by 10 µM of activator normalized to 10 µM SKA-31 (described in words) (KCa3.1),KCa2 channel mediated side effects on CNS and heart rate [1],Blood pressure lowering [1],Selectivity for KCa3.1 [2]
"Cc1cc2sc(N)nc2c2ccccc12 [SKA-111, 5-methylnaphtho[1,2-d]thiazol-2-amine]",–,–,–,–,avoiding KCa2 channel mediated side effects on the CNS and on heart rate,efficacious in lowering blood pressure,–
"Cc1cc2nc(N)oc2c2ccccc12 [SKA-121, 5-methylnaphtho[2,1-d]oxazol-2-amine]",–,–,–,–,avoiding KCa2 channel mediated side effects on the CNS and on heart rate,efficacious in lowering blood pressure,40–100 fold
"Cc1nc2c(cc(Br)c3ccccc32)o1 [SKA-133, 5-Bromo-2-methylnaphtho[1,2-d]oxazole]",101 to 102,preserved selectivity for KCa3.1,decreased activity,–,–,–,–
"c1ccc(Nc2nc3c(ccc4ccccc43)s2)cc1 [SKA-146, N-Phenylnaphtho[1,2-d]thiazol-2-amine]",140 to 141,–,less potent than SKA-31,less potent than SKA-31,–,–,–
"Cc1ccc2cccc(-c3csc(N)n3)c2c1 [SKA-193, 4-(7-Methylnaphthalen-1-yl)thiazol-2-amine]",154 to 156,–,somewhat increased KCa channel activating potency,somewhat increased KCa channel activating potency,–,–,–
"Cc1ccc2cc(-c3csc(N)n3)ccc2c1 [SKA-198, 4-(6-Methylnaphthalen-2-yl)thiazol-2-amine]",178 to 179,–,somewhat increased KCa channel activating potency,somewhat increased KCa channel activating potency,–,–,–
"c1ccc(Nc2nc(-c3cccc4ccccc34)cs2)nc1 [SKA-258, 4-(Naphthalen-1-yl)-N-(pyridin-2-yl)thiazol-2-amine]",225,–,completely abolished activity,completely abolished activity,–,–,–
"Cc1ccc(-c2csc(Nc3cccc(C(F)(F)F)c3)n2)cc1 [SKA-260, 4-(p-Tolyl)-N-(3-(trifluoromethyl)phenyl)thiazol-2-amine]",108,–,completely devoid of activity,completely devoid of activity,–,–,–
"c1ccc(-c2csc(Nc3ccccn3)n2)cc1 [SKA-265, 4-Phenyl-N-(pyridin-2-yl)thiazol-2-amine]",–,–,completely devoid of activity,completely devoid of activity,–,–,–
"Nc1nc2c(cc([N+](=O)[O-])c3ccccc32)s1 [SKA-321, 5-Nitronaphtho[1,2-d]thiazol-2-amine]",289 to 291,–,drastically reduced potency,drastically reduced potency,–,–,–

# — PMC6764326, “The Trials and Tribulations of Structure Assisted Design of KCa Channel Activators” (Frontiers in Pharmacology, 2019)
